{"source": "patent US20250179167A1", "about": "“IL-6 INHIBITOR AS TREATMENT FOR NEPHROPATHY” (YALE UNIVERSITY, priority 2022, published 2025)", "system": "diabetic CD-1 mice", "assay": "Plasma cytokine array (Luminex) in diabetic CD-1 mice with and without Wnti treatment", "format": "in vivo, mouse", "method": "Plasma cytokines and chemokines were measured in diabetic CD-1 mice with and without Wnti treatment by using a cytokine array analysis (Luminex). n=5 biologically independent mice/group. Data are mean±SEM. Student's-test (unpaired two-tailed) was used for analysis of statistical significance. Significance—*p<0.05. In one experiment, male mice were randomized to one of 4 groups sixteen weeks after induction of diabetes: (i) untreated, (ii) fenofibrate (100 mg/kg), (iii) simvastatin (40 mg/kg), or (iv) Wnt inhibitor (LGK974; 5 mg/kg). In each case, mice were treated for 4 weeks and compared to untreated diabetic CD-1 mice. In another experiment, male diabetic CD-1 mice were randomized into one of 3 groups: (i) untreated (vehicle), (ii) etomoxir (20 mg/kg) or (iii) C75 (15 mg/kg); in each case mice were treated (IP) three times/week for a total 4 weeks.", "data": [{"molecule": "Cc1cc(-c2ncc(CC(=O)Nc3ccc(-c4cnccn4)cn3)cc2C)ccn1", "note": "[LGK974]", "values": [{"measurement": "plasma CCL4 level", "value": "significantly suppressed"}, {"measurement": "plasma CCL5 level", "value": "increasing"}, {"measurement": "plasma G-CSF level", "value": "significantly suppressed"}, {"measurement": "plasma IL-1β level", "value": "significantly suppressed"}, {"measurement": "plasma IL-6 level", "value": "significantly suppressed"}, {"measurement": "plasma IL-10 level", "value": "significantly suppressed"}, {"measurement": "plasma MCP-1 level", "value": "significantly suppressed"}, {"measurement": "plasma TNFα level", "value": "significantly suppressed"}]}]}
